These compounds were tested on Phytophthora infestans (assay: whole plant or invertebrate). Details: Phytophthora infestans, in Solanum lycopersicum, 72 h, read-out: Efficacy in %, single active compound, application rate 0.1 g/ha; tomato, protective, evaluation 3 days after inoculation.
Type: in vivo

Compound	pest or weed control at 0.1 g/ha [%]
Cc1noc(C)c1S(=O)(=O)n1c(Cl)nc2cc3c(cc21)OC(F)(F)O3 [compound of the formula (XXVII), 1-(3,5-dimethyl-isoxazol-4-sulphonyl)-2-chloro-6,6-difluoro-[1,3]-dioxolo-[4,5f]-benzimidazole]	30
CC(C)OC(=O)NC(C(=O)NC(C)c1nc2ccc(F)cc2s1)C(C)C (stereo not shown) [compound of the formula (I), isopropyl 1-({[1-(6-fluoro-1,3-benzothiazol-2-yl)ethyl]-amino}carbonyl)-2-methylpropylcarbamate]	47

Same assay, conditions: Phytophthora infestans, in Solanum lycopersicum, 72 h, read-out: Efficacy in %, single active compound, application rate 1 g/ha; tomato, protective, evaluation 3 days after inoculation

Compound	pest or weed control at 1 g/ha [%]
CO/N=C(/C(=O)OC)c1ccccc1CO/N=C(\C)c1cccc(C(F)(F)F)c1 [compound of the formula (XIII) (12), trifloxystrobin]	0
CC(C)OC(=O)NC(C(=O)NC(C)c1nc2ccc(F)cc2s1)C(C)C (stereo not shown) [compound of the formula (I), isopropyl 1-({[1-(6-fluoro-1,3-benzothiazol-2-yl)ethyl]-amino}carbonyl)-2-methylpropylcarbamate]	47
CO/C=C(/C(=O)OC)c1ccccc1Oc1cc(Oc2ccccc2C#N)ncn1 [compound of the formula (XII) (11), azoxystrobin]	55
CO/N=C(/C1=NOCCO1)c1ccccc1Oc1ncnc(Oc2ccccc2Cl)c1F [compound of the formula (XIV) (13)]	8

Same assay, conditions: Phytophthora infestans, in Solanum lycopersicum, 72 h, read-out: Efficacy in %, single active compound, application rate 10 g/ha; tomato, protective, evaluation 3 days after inoculation

Compound	pest or weed control at 10 g/ha [%]
OC(Cc1ccccc1Cl)(Cn1nc[nH]c1=S)C1(Cl)CC1 (stereo not shown) [compound of the formula (XXI) (20)]	2
O=[N+]([O-])/N=C1\NCCN1Cc1ccc(Cl)nc1 [imidacloprid (XXII), 1-[(6-chloro-3-pyridinyl)-methyl]-N-nitro-2-imidazolidinimine]	0
CC(C)(C)C(O)C(Oc1ccc(Cl)cc1)n1cncn1 (stereo not shown) [triadimenol (IIb), 1-(4-chloro-phenoxy)-3,3-dimethyl-1-(1,2,4-triazol-1-yl)-butan-2-ol]	0
O=[N+]([O-])c1cc(C(F)(F)F)c(Cl)c([N+](=O)[O-])c1Nc1ncc(C(F)(F)F)cc1Cl [fluazinam (XXXI), fluazinam]	56
CC1(C(=O)Nc2ccc(O)c(Cl)c2Cl)CCCCC1 [fenhexamid (VIII), fenhexamid]	13
CC(C)(C)C(O)C(Oc1ccc(-c2ccccc2)cc1)n1cncn1 (stereo not shown) [bitertanol (IIc), 1-(4-phenyl-phenoxy)-3,3-dimethyl-1-(1,2,4-triazol-1-yl)-butan-2-ol]	4
CC(C)(C)C(O)(CCc1ccc(Cl)cc1)Cn1cncn1 (stereo not shown) [tebuconazole (III), tebuconazole]	5
CCC1(C(=O)NC(C)c2ccc(Cl)cc2)C(C)C1(Cl)Cl (stereo not shown) [carpropamid (V), N-[1-(4-chloro-phenyl)-ethyl]-2,2-dichloro-1-ethyl-3-methyl-cyclopropane-carboxamide]	0

Same assay, conditions: Phytophthora infestans, in Solanum lycopersicum, 72 h, read-out: Efficacy in %, single active compound, application rate 20 g/ha; tomato, protective, evaluation 3 days after inoculation

Compound	pest or weed control at 20 g/ha [%]
O=C1c2ccccc2C(=O)N1SC(Cl)(Cl)Cl [folpet (XIX), folpet]	0
N#Cc1c(Cl)c(Cl)c(Cl)c(C#N)c1Cl [chlorothalonil (XXIX), chlorothalonil]	12

Same assay, conditions: single active compound, application rate 10 g/ha; tomato, protective, evaluation 3 days after inoculation

Compound	Efficacy in % [%]
CCCN(CC)CC1COC2(CCC(C(C)(C)C)CC2)O1 (stereo not shown) [spiroxamine (XI), 8-t-butyl-2-(N-ethyl-N-n-propyl-amino)-methyl-1,4-dioxaspiro[5,4]-decane]	0

Same assay, conditions: single active compound, application rate 20 g/ha; tomato, protective, evaluation 3 days after inoculation

Compound	Efficacy in % [%]
mancozeb [mancozeb (VIIc)]	28
CN(C)S(=O)(=O)N(SC(F)(Cl)Cl)c1ccccc1 [dichlofluanid (IVa), dichlofluanid]	5
zinc propylene-1,2-bis-(dithiocarbamidate) [propineb (VI)]	19
Cc1ccc(N(SC(F)(Cl)Cl)S(=O)(=O)N(C)C)cc1 [tolylfluanid (IVb), tolylfluanid]	21

Same assay, conditions: single active compound, application rate 50 g/ha; tomato, protective, evaluation 3 days after inoculation

Compound	Efficacy in % [%]
[Cl-].[Cu+2].[Cu+2].[OH-].[OH-].[OH-] [compound of the formula (XXXXVIa) (40), copper oxychloride]	0

Source: patent US7115593B2 (priority 2000, dated 2006)
